From ChEMBL document CHEMBL5346899, “PKM2/PDK1 dual-targeted shikonin derivatives restore the sensitivity of EGFR-mutated NSCLC cells to gefitinib by remodeling glucose metabolism” (Eur J Med Chem, 2023)
Activity calls are given as the source filed them. The calls are words filed in the database; no cut-off is given here.

Legend:
NCI-H1299 [1] = test: cells; assay type: functional, cell-based; conditions: Homo sapiens, NCI-H1299, 24 h
Description: Antiproliferative activity against human NCI-H1299 cells assessed as inhibition of cell growth incubated for 24 hrs by CCK-8 assay

HCC827 [2] = test: cells; assay type: functional, cell-based; conditions: Homo sapiens, HCC827, 24 h
Description: Antiproliferative activity against human HCC827 cells assessed as inhibition of cell growth incubated for 24 hrs by CCK-8 assay

HCC827 [3] = test: Antiproliferative activity against human HCC827 cells assessed as inhibition of clone formation rate; assay type: functional, cell-based
HCC827 [4] = test: Antiproliferative activity against human HCC827 cells assessed as reduction in clone size; assay type: functional, cell-based
NCI-H1299 [5] = test: Induction of apoptosis in human NCI-H1299 cells assessed as early apoptotic cells at 1 micromol/L incubated for 24 hrs by Annexin V-FITC/PI staining based analysis (reference value: 2.43%); assay type: functional; conditions: dose 1 µmol/L, at 1 µM
NCI-H1299 [6] = test: Induction of apoptosis in human NCI-H1299 cells assessed as late apoptotic cells at 2 micromol/L incubated for 24 hrs by Annexin V-FITC/PI staining based analysis (reference value: 14.9%); assay type: functional; conditions: dose 2 µmol/L, at 2 µM
A549 [7] = test: Induction of apoptosis in human A549 cells assessed as early apoptotic cells at 1 micromol/L incubated for 24 hrs by Annexin V-FITC/PI staining based analysis (reference value: […]%); assay type: functional; conditions: dose 1 µmol/L
A549 [8] = test: Induction of apoptosis in human A549 cells assessed as late apoptotic cells at 1 micromol/L incubated for 24 hrs by Annexin V-FITC/PI staining based analysis (reference value: 3.18%); assay type: functional; conditions: dose 1 µmol/L, at 1 µM
HCC827 [9] = test: Induction of apoptosis in human HCC827 cells assessed as early apoptotic cells at 1 micromol/L incubated for 24 hrs by Annexin V-FITC/PI staining based analysis (reference value: 9.14%); assay type: functional; conditions: dose 1 µmol/L, at 1 µM
NCI-H1975 [10] = test: Induction of apoptosis in human NCI-H1975 cells assessed as regulation of cleaved Caspase-9 expression by Western blot analysis; assay type: functional, cell-based
NCI-H1975 [11] = test: Induction of apoptosis in human NCI-H1975 cells assessed as regulation of Caspase-3 expression by Western blot analysis; assay type: functional, cell-based
NCI-H1975 [12] = test: Induction of apoptosis in human NCI-H1975 cells assessed as regulation of Fas expression by Western blot analysis; assay type: functional, cell-based
NCI-H1975 [13] = test: Induction of apoptosis in human NCI-H1975 cells assessed as regulation of caspase-8 expression by Western blot analysis; assay type: functional, cell-based
NCI-H1975 [14] = test: Induction of mitochondrial transmembrane potential dissipation in human NCI-H1975 cells assessed as cells with high mitochondrial transmembrane potential at 0.5 micromol/L by FL-1/FL-2 channel based fluorescence analysis (reference value: 97.4%); assay type: functional; conditions: dose 0.5 µmol/L; at 0.5 µM
NCI-H1975 [15] = test: Induction of mitochondrial transmembrane potential dissipation in human NCI-H1975 cells assessed as cells with low mitochondrial transmembrane potential at 0.5 micromol/L by FL-1/FL-2 channel based fluorescence analysis (reference value: 2.13%); assay type: functional; conditions: dose 0.5 µmol/L; at 0.5 µM
NCI-H1975 [16] = test: Induction of mitochondrial transmembrane potential dissipation in human NCI-H1975 cells assessed as cells with low mitochondrial transmembrane potential at 1 micromol/L by FL-1/FL-2 channel based fluorescence analysis (reference value: 2.13%); assay type: functional; conditions: dose 1 µmol/L; at 1 µM
Pyruvate kinase PKM [17] = molecular target: T1, Pyruvate kinase PKM (Homo sapiens, UniProt P14618); test: Binding affinity to PKM2 (unknown origin) assessed as dissociation constant associated for 60 secs and dissociated for 90 secs by bio-layer interferometry analysis
Target sequence in this assay (P14618 whole entry): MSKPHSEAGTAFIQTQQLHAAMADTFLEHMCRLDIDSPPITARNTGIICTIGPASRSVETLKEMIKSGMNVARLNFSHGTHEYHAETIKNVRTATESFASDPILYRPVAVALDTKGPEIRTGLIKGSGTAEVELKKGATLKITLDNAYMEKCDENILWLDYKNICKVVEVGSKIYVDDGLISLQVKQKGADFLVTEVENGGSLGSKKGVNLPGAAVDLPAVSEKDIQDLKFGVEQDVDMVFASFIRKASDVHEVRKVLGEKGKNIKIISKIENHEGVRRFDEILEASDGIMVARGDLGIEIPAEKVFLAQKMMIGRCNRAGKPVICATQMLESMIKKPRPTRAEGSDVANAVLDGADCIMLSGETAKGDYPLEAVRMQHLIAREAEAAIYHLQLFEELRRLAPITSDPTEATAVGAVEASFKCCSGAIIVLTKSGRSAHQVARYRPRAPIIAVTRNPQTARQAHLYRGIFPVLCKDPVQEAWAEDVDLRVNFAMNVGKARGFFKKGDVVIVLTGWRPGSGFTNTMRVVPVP

Pyruvate kinase PKM [18] = molecular target: T1, Pyruvate kinase PKM; test: Activation of PKM2 in human HCC827 cells at 1 to 2 micromol/L by Western blot analysis; assay type: cell-based; conditions: filed as activator, dose 1-2 µmol/L
Target sequence in this assay (P14618 2-531 limits assumed): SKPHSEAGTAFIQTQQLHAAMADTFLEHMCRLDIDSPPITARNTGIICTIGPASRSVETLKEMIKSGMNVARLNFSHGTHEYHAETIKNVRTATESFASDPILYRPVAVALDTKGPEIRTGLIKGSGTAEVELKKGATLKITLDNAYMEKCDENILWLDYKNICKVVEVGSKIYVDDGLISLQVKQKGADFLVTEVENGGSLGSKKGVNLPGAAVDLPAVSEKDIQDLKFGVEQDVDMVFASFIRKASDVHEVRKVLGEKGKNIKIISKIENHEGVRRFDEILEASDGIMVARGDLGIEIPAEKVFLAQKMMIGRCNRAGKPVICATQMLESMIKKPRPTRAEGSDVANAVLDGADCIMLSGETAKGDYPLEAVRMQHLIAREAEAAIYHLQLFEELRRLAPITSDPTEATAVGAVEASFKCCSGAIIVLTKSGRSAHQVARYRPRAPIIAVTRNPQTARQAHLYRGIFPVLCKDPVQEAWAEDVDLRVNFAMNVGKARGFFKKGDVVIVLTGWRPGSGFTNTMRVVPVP

Pyruvate kinase PKM [19] = molecular target: T1, Pyruvate kinase PKM; test: Activation of PKM2 in siRNA mediated PKM2 knockdown human HCC827 cells at 1 to 2 micromol/L by Western blot analysis; assay type: cell-based; conditions: dose 1-2 µmol/L
Target sequence in this assay (P14618 2-531 limits assumed): as above

NCI-H1975 [20] = test: Antiproliferative activity against siRNA mediated PKM2 knockdown human NCI-H1975 cells assessed as inhibition of cell growth incubated for 24 hrs by CCK-8 assay; assay type: functional, cell-based; conditions: NCI-H1975, 24 h
Pyruvate kinase PKM [21] = molecular target: T1, Pyruvate kinase PKM; test: Inhibition of PKM2 (unknown origin) nuclear translocation
Target sequence in this assay (P14618 2-531 limits assumed): as above

HCC827 [22] = test: Effect on PKM2 protein expression in human HCC827 cells at 1 to 2 micromol/L by Western blot analysis; assay type: functional, cell-based; conditions: dose 1-2 µmol/L
[23] = molecular target: [Pyruvate dehydrogenase (acetyl-transferring)] kinase isozyme 1, mitochondrial (Homo sapiens, UniProt Q15118); test: Binding affinity to PDK1 (unknown origin) assessed as dissociation constant associated for 60 secs and dissociated for 90 secs by bio-layer interferometry analysis
NCI-H1975 [24] = test: Induction of apoptosis in human NCI-H1975 cells with siRNA mediated […] knockdown assessed as early apoptotic cells at 1 micromol/L incubated for 24 hrs by Annexin V-FITC/PI staining based analysis (reference value: 2.54%); assay type: functional; conditions: dose 1 µmol/L, at 1 µM
NCI-H1975 [25] = test: Induction of apoptosis in human NCI-H1975 cells with siRNA mediated […] knockdown assessed as late apoptotic cells at 2 micromol/L incubated for 24 hrs by Annexin V-FITC/PI staining based analysis (reference value: 6.25%); assay type: functional; conditions: dose 2 µmol/L, at 2 µM
NCI-H1975 [26] = test: Inhibition of NADPH production in human NCI-H1975 cells incubated for 2 hrs by NADP+/NADPH assay; assay type: functional, cell-based
[27] = Toxicity in athymic nu/nu mouse xenografted with human NCI-H1975 cells assessed as reduction in body weight at 2.4 to 4.8 mg/kg, ip administered every 2 days for 11 days; assay type: organism-based; conditions: in vivo, 264 h, dose 2.4-4.8 mg/kg, time 11 day
NCI-H1975 [28] = test: Antitumor activity against human NCI-H1975 cells xenografted in athymic nu/nu mouse assessed as inhibition of tumor cell proliferation at 2.4 to 4.8 mg/kg, ip administered every 2 days for 11 days by Ki67 staining based analysis; assay type: functional, organism-based; conditions: dose 2.4-4.8 mg/kg, time 11.0 day
NCI-H1975 [29] = test: Synergistic antiproliferative activity against human NCI-H1975 cells harboring EGFR mutant assessed as cell growth inhibition at 0.5 to 4 micromol/L incubated for 24 hrs in presence of 2.5 to 20 micromol/L gefitinib by CCK-8 assay; assay type: functional, cell-based; conditions: dose 0.5-4 µmol/L
NCI-H1975 [30] = test: Induction of apoptosis in human NCI-H1975 cells assessed as early apoptotic cells at 0.5 micromol/L incubated for 24 hrs by Annexin V-FITC/PI staining based analysis (reference value: 2.55%); assay type: functional; conditions: dose 0.5 µmol/L, at 0.5 µM
NCI-H1975 [31] = test: Induction of apoptosis in human NCI-H1975 cells assessed as dead cells at 0.5 micromol/L incubated for 24 hrs by Annexin V-FITC/PI staining based analysis (reference value: 0.103%); assay type: functional; conditions: dose 0.5 µmol/L, at 0.5 µM
NCI-H1975 [32] = test: Induction of apoptosis in human NCI-H1975 cells assessed as late apoptotic cells at 10 micromol/L incubated for 24 hrs by Annexin V-FITC/PI staining based analysis (reference value: 8.61%); assay type: functional; conditions: dose 10 µmol/L, at 10 µM
NCI-H1975 [33] = test: Induction of apoptosis in human NCI-H1975 cells assessed as late apoptotic cells at 0.5 micromol/L incubated for 24 hrs in presence of gefitinib by Annexin V-FITC/PI staining based analysis (reference value: 8.61%); assay type: functional; conditions: dose 0.5 µmol/L, at 0.5 µM
NCI-H1975 [34] = test: Induction of apoptosis in human NCI-H1975 cells assessed as dead cells at 0.5 micromol/L incubated for 24 hrs in presence of gefitinib by Annexin V-FITC/PI staining based analysis (reference value: 0.103%); assay type: functional; conditions: dose 0.5 µmol/L, at 0.5 µM

Sequence of [Pyruvate dehydrogenase (acetyl-transferring)] kinase isozyme 1, mitochondrial (Q15118 whole entry): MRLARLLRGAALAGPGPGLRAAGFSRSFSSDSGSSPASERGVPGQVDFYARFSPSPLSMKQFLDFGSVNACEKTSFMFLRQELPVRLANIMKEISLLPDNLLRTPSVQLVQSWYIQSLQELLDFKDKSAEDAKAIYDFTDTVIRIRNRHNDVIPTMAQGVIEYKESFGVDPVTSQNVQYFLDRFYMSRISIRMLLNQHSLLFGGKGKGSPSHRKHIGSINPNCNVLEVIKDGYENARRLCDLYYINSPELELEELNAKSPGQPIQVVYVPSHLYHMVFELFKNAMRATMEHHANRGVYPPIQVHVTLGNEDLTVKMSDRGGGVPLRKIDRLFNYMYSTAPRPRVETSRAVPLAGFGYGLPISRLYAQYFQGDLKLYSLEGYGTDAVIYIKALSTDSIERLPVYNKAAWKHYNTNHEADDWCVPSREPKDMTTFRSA

## COC(=O)[C@H](CS[C@H](CC=C(C)C)C1=CC(=O)c2c(O)ccc(O)c2C1=O)NC(=O)CCCC[C@@H]1CCSC(c2ccccc2C)S1 (some centres undefined)
NCI-H1299 [1]
  IC50: 5.48 µM
HCC827 [2]
  IC50: 5.19 µM
HCC827 [3]
  Activity: Dose-Dependent Effect
HCC827 [4]
  Activity: Dose-Dependent Effect
NCI-H1299 [5]
  Activity: 4.68%
NCI-H1299 [6]
  Activity: 24.5%
A549 [7]
  Activity: 8.74%
A549 [8]
  Activity: 5.33%
HCC827 [9]
  Activity: 16.5%
NCI-H1975 [10]
  Activity: Active
NCI-H1975 [11]
  Activity: Active
NCI-H1975 [12]
  Activity: Active
NCI-H1975 [13]
  Activity: Active
NCI-H1975 [14]
  Activity: 88.1%
NCI-H1975 [15]
  Activity: 11.8%
NCI-H1975 [16]
  Activity: 11.8%
Pyruvate kinase PKM [17]
  Kd: 28 µM
Pyruvate kinase PKM [18]
  Activity: Active
Pyruvate kinase PKM [19]
  Activity: inactive
NCI-H1975 [20]
  IC50: 8 µM
Pyruvate kinase PKM [21]
  inhibition: Active
HCC827 [22]
  Activity: inactive
[23]
  Kd: 12.1 µM
NCI-H1975 [24]
  Activity: 1.82%
NCI-H1975 [25]
  Activity: 8.16%
NCI-H1975 [26]
  inhibition: Active
[27]
  Activity: Non-Toxic
NCI-H1975 [28]
  Activity: Active
NCI-H1975 [29]
  Activity: Active
NCI-H1975 [30]
  Activity: 1.54%
NCI-H1975 [31]
  Activity: 0%
NCI-H1975 [32]
  Activity: 9.56%
NCI-H1975 [33]
  Activity: 25%
NCI-H1975 [34]
  Activity: 0.011%
